In patent publication US20070270459A1, “Overactive bladder treating drug” (ASTELLAS PHARMA INC., priority 2002, published 2007):
Where a name gives a salt, the structure may show the parent alone.

Test system: overactive bladder model rat
Test: Cystometry under nonanesthesized condition in overactive bladder model (BOO) rats
Assay type: in vivo
Excerpt: (1) Preparation of Overactive Bladder Model Rats
Wistar female rats (6 to 7 weeks old) were employed for the preparation. A catheter was inserted into the urinary bladder through the external urethral orifice under anesthesia with sodium pentobarbital in rats. After subjecting the abdominal region to the median section, the proximal urethra was ligated together with the catheter at 2 sites by a silk blade (5-0), and the catheter was removed.
(2) Cystometry Under Nonanesthesized Condition
At more than 6 weeks after surgery, the silk blade used for ligation of the urethra was removed under anesthesia with sodium pentobarbital. A catheter for infusion of physiological saline and for the measurement of the intravesical pressure was inserted into the urinary bladder through the top part of the urinary bladder and fixed. A catheter for administration of a drug was inserted into the jugular vein, and the rat was returned to a housing cage after recovery. At 2 days after surgery, the catheter inserted into the urinary bladder was connected to a syringe pump for continuous infusion of physiological saline (7-20 mL/hr) to induce the micturition reflex and to a pressure transducer to measure the intravesical pressure with a three way stopcock. After the micturition reflex was stabilized, physiological saline or a drug was administered through the catheter for administration of a drug inserted into the jugular vein.
As the parameters evaluated, the frequency of contraction before micturition (the number of contractions for 10 min before starting of micturition), contraction pressure (mean contraction pressure for 10 min before starting of micturition), micturition pressure and interval of micturition were employed for the present test. The effect of a drug was evaluated on the basis of the inhibition ratio against the pre-dosing values (prolongation ratio in the micturition interval).
Tamsulosin hydrochloride was administered intravenously in increasing the doses at a common ratio of about 3 (1, 3 and 10 μg/kg). The action of tamsulosin hydrochloride (3 μg/kg) in combination with Solifenacin succinate (3 mg/kg) on each parameter was also evaluated.
Each test was performed at n=5, and the results are expressed as mean±standard error. Student's t-test and Tukey's test were used for comparison between 2 groups and among multiple groups, respectively.

Compound	interval of micturition, prolongation ratio (3 mg/kg i.v., alone) [%]	interval of micturition, prolongation ratio (3 μg/kg i.v., alone) [%]	micturition pressure (10 μg/kg intravenous)	interval of micturition, prolongation ratio (10 μg/kg intravenous, vs pre-dosing value) [%]	frequency of contraction before micturition (number of contractions for 10 min before starting of micturition) (tamsulosin hydrochloride 1, 3 and 10 μg/kg intravenous, vs pre-dosing values, n=5, FIG. 1A)	contraction pressure before micturition (mean contraction pressure for 10 min before starting of micturition) (tamsulosin hydrochloride 1, 3 and 10 μg/kg intravenous, vs pre-dosing values, n=5, FIG. 1B)	micturition pressure (tamsulosin hydrochloride alone, comparison arm of the combination test (3 μg/kg i.v.))
O=C(O[C@H]1CN2CCC1CC2)N1CCc2ccccc2[C@@H]1c1ccccc1 [solifenacin succinate, (+)-(1S,3′R)-quinuclidin-3′-yl 1-phenyl-1,2,3,4-tetrahydroisoquinoline-2-carboxylate]	2.6	–	–	–	–	–	–
CCOc1ccccc1OCCN[C@H](C)Cc1ccc(OC)c(S(N)(=O)=O)c1 [tamsulosin hydrochloride, (R)(−)-5-[2-[[2-(o-ethoxyphenoxy)ethyl]amino]propyl]-2-methoxybenzene-sulfonamide]	–	2.1	no influence	9.2	inhibited in a dose-dependent manner	inhibited in a dose-dependent manner	no effect
